Measured values as given in patent publication US9656953B2, “Inhibition of cell proliferation” (University of South Florida, priority 2005, dated 2017).
“Also recorded” adds a separate entry of the source.

Legend:
[1] = molecular target: T1, binding of Rb to Raf-1 in A-549 cells (Homo sapiens, UniProt P04049+P06400); experiment: IP-western, serum stimulated A-549 cells, Rb:Raf-1; type: cell-based
T1 construct: endogenous in cells; host or cells: A549
Source text: (§1) Lysate preparation, pmmunoprecipitation, and pestern plotting.

Rb binding to E2F1 = molecular target: T2, Rb binding to E2F1 (Homo sapiens, UniProt P06400+Q01094); experiment: IP-western, A-549 cells, Rb-E2F1; type: cell-based
T2 construct: endogenous in cells; host or cells: A549
Source text: as §1

[2] = tested on: Rb phosphorylation (serines 807 and 811); experiment: Western blot of Rb phosphorylation, A549 cells; type: cell-based, human; settings: cells treated 18 hours, western blotting
Source text: as §1

cyclin D kinase activity = experiment: In vitro kinase assay, cyclin D; type: biochemical
Protocol: In vitro kinase assay. The kinase reaction for Raf-1 was carried out with 100 nanograms (ng) of Raf-1 (Upstate Signaling, Charlottesville, Va.), 0.5 μg of full-length Rb protein (QED Bioscience, San Diego, Calif.) as the substrate, 10 μM ATP, 10 μCi of [γ-^32P] ATP in the kinase assay buffer in the presence or absence of the drugs at 30° C. for 30 minutes. Cyclin D and E kinase assays are described in (Dasgupta 2004).

[3] = tested on: cdc6, cdc25A and TS promoters; experiment: Chromatin immunoprecipitation (ChIP) assay, A549 cells; type: cell-based, human; settings: 20 μM
Protocol: Chromatin immunoprecipitation (ChIP) assay. A549 cells were rendered quiescent by serum starvation and re-stimulated with serum for 2h or 16h in the presence or absence of RRD 251 at 20μM. Cells were cross-linked with 1% formaldehyde for 10 minutes at room temperature. Subsequently, the cells were harvested and lysates were prepared. Immunoprecipitations were analyzed for the presence of E2F1, Rb, Raf-1, Brg1, HP1, and HDAC1 by PCR as previously described (Dasgupta 2004). Rabbit anti-mouse secondary antibody was used as the control for all reactions. The sequences of the PCR primers used in the PCRs were as follows: Cdc6 promoter (forward primer), 5′- […]-3′ (SEQ ID NO:1); and Cdc6 promoter (reverse primer), 5′-[…]-3′ (SEQ ID NO:2). TS promoter (forward primer), and 5′-GAC GGA GGC AGG CCA AGT G-3′ SEQ ID NO:3) TS promoter (reverse primer). The cdc25A and c-fos primers are described in (Dasgupta, 2004).
Since serum is known to stimulate the binding of Raf-1 to Rb and leads to the dissociation of the co-repressor Brg-1 from E2F-responsive proliferative promoters like cdc6, cdc25 and TS promoters, it was hypothesized that 3a may interfere with this process. […] Binding of E2F1, HDAC1 and HP1 was not affected.

MDA-MB-231 cells = experiment: BrdU proliferation assay, MDA-MB-231; type: cell-based, human
Protocol: (§2) Proliferation assays. Bromodeoxyuridine (BrdU) labeling kits were obtained from Roche Biochemicals (Indianapolis, Ind.). Cells were plated in poly-D-lysine coated chamber slides at a density of 10,000 cells per well and rendered quiescent by serum starvation for 24 hours. Cells were then re-stimulated with serum in the presence or absence of the indicated drugs for 18 h. S-phase cells were visualized by microscopy and quantitated by counting 3 fields of 100 in quadruplicate.
The metastatic human breast cancer cell line MDA-MB-231 harbors a K-Ras mutation and overexpresses EGFR.

A375 melanoma cell line = experiment: BrdU incorporation, S-phase entry, A375; type: cell-based; settings: V600E B-Raf
Protocol: as §2
A V600E mutation in the B-Raf oncogene is associated with 66% of melanomas and leads to an over-activation of phospho-Erk signaling. The A375 melanoma cell line harbors the V600E B-Raf mutation. Using the methods of the preceding examples, 3a was inhibited 58% of S-phase entry in this cell line.

[4] = tested on: A549 cells infected with Ad-E2F1; experiment: BrdU incorporation, A549 infected with Ad-E2F1; type: cell-based, human; settings: 20 μM of 3a for 36 h
Protocol: as §2
To this end, A549 cells were infected with Ad-E2F1 or Ad-cyclin D, in the presence of 20 μM of 3a for 36 h. Ad-GFP infected cells were used as a control.

[5] = tested on: Human aortic endothelial cells (HAECs); experiment: Matrigel angiogenic tubule formation; type: cell-based; settings: 20 μM
Protocol: Matrigel assays. […] A total of 100 μl of thawed Matrigel was added to 96-well tissue culture plates, followed by incubation at 37° C. for 60 minutes to allow polymerization. […] Capillary tube formation assessed by using a Leica DMIL phase contrast microscope.
An experiment was performed to determine whether angiogenic tubule formation could be inhibited by the disclosed compounds.

A549 cells = experiment: Soft agar assay, A549; type: cell-based, human
Protocol: (§3) Soft Agar Assay. Soft agar assays were done in triplicate in 12-well plates (Corning, Corning N.Y.). First, the bottom layer of agar (0.6%) was allowed to solidify at room temperature. Next the top layer of agar was (0.3%) was mixed with 5,000 cells per well and the indicated drug. The drugs were added twice weekly in complete media to the agar wells. Colonies were quantified by staining with MTT (3-(4,5-Dimethylthiazol-2-yl)-2,5-diphenyltetrazolium bromide) 1 mg/mL for 1 hour at 37° C.
(§4) Experiments were also carried out to examine the effect of 3a in inhibiting the adherence-independent growth of cancer cells in soft agar.

H1650 cells = experiment: Soft agar assay, H1650; type: cell-based
Protocol: as §3, §4

SK-MEL-28 cells = experiment: Soft agar assay, SK-MEL-28; type: cell-based
Protocol: as §3, §4

A549-sh8 tumors = experiment: A549-sh8 (Rb shRNA) xenograft in nude mice; type: in vivo; settings: 150 mpk orally
Protocol: Animal Studies. Nude mice (Charles River, Wilminton, Mass., USA) were maintained in accordance with Institutional Animal Care and Use Committee (IAUCUC) procedures and guidelines. A549 cells were harvested and resuspended in PBS, and then injected s.c. into the right and left flanks (10×10^6 cells per flank) of 8-week old female nude mice as reported previously (Sun 99). When tumors reached about 100-200 mm^3, animals were dosed intraperitoneally i.p. or orally by gavage with 0.1 mL solution once daily. Control animals received a vehicle, whereas treated animals were given 3a or RRD-238a at the indicated doses. The tumor volumes were determined by measuring the length (l) and the width (w) and calculating the volume (V=lw^2/2) as described previously (Sun 99). Statistical significance between control and treated animals were evaluated using Student's t-test.
Athymic nude mice were implanted with 1×10^7 A549 cells bilaterally and the tumors were allowed to reach 200 mm^3 in size before treatment began. […] Furthermore, to examine whether 3a could affect the growth of tumors lacking Rb in vivo, sh6 and sh8 (shRNA for Rb) cell lines were implanted into the flanks of nude mice. The mice were given 3a orally at 150 mpk and the control groups were administered the vehicle.

[6] = molecular target: T3, Rb/E2F1 interaction in tumor xenografts (Homo sapiens, UniProt P06400+Q01094); experiment: IP-Western of tumor lysates, Rb/E2F1; type: in vivo, nude mice; settings: both doses
T3 construct: from tissue; host or cells: A549 xenograft tumors from nude mice
T3 sequence (P06400 whole entry): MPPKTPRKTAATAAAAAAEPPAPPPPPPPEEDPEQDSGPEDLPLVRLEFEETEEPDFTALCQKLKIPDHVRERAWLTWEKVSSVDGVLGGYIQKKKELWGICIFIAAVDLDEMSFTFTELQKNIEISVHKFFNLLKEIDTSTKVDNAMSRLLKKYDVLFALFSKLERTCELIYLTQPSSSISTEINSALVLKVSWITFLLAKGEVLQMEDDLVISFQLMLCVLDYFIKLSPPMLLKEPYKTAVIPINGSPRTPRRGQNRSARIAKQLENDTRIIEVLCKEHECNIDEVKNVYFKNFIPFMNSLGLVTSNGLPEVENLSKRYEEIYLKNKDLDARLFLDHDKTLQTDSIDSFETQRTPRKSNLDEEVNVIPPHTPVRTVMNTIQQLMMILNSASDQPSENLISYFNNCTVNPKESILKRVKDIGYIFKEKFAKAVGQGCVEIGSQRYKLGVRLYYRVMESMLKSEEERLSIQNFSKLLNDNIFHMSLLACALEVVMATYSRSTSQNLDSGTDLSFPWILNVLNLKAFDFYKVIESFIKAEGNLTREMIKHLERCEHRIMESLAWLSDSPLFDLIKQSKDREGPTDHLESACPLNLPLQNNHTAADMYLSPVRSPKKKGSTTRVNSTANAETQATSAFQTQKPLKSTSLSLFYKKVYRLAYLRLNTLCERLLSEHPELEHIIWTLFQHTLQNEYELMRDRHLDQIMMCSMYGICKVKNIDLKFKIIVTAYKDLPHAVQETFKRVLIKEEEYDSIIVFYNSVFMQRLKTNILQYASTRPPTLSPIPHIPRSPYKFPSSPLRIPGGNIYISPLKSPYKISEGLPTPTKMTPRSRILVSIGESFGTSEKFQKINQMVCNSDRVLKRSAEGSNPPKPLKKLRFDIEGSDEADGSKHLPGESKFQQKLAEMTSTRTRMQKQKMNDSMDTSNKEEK
T3 sequence (Q01094 whole entry): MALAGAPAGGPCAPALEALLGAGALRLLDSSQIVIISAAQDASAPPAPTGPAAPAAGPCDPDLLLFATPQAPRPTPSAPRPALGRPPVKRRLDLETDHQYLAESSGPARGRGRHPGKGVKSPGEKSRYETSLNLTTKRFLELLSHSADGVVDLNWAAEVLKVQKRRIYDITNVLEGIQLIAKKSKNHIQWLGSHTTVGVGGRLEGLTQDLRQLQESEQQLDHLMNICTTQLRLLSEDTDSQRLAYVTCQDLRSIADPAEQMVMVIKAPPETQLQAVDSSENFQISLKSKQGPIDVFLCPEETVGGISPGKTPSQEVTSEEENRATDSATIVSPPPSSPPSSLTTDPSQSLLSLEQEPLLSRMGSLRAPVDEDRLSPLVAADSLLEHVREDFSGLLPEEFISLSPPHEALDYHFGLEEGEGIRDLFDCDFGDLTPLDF

T1 sequence (P06400 whole entry): as the sequence (P06400 whole entry) above
T1 sequence (P04049 whole entry): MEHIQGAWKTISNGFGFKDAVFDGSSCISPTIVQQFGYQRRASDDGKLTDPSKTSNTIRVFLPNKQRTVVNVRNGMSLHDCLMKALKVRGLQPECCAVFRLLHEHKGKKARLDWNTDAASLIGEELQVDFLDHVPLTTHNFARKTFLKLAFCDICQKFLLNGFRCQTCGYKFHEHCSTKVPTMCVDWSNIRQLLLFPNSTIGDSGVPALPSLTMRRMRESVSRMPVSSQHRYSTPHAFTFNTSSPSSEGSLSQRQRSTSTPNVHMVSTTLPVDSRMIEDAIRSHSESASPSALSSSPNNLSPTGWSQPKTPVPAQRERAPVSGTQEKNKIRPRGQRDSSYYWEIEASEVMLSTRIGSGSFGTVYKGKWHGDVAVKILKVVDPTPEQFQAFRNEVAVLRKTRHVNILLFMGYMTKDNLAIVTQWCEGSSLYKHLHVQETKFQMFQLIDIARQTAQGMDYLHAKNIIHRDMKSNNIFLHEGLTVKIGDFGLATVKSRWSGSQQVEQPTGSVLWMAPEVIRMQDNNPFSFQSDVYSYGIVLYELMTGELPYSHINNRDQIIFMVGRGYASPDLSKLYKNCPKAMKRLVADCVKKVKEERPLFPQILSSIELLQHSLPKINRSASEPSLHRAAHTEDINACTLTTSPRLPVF
T2 sequence (P06400 whole entry): as the sequence (P06400 whole entry) above
T2 sequence (Q01094 whole entry): as the sequence (Q01094 whole entry) above

In the case of Cl.N=C(N)SCc1ccc(Cl)cc1Cl [Compound 3a], the “serum stimulated binding of Rb to Raf-1” value [1] is reported as “inhibited”, the “Rb binding to E2F1” value (Rb binding to E2F1) is reported as “not affected” and the Rb phosphorylation [2] is reported as “reduced Rb phosphorylation significantly; also recorded: marked reduction in Rb phosphorylation”. The “cyclin D kinase activity” value (cyclin D kinase activity) was “does not inhibit; also recorded: did not affect the kinase activities”, the “Raf-1 binding to E2F-responsive promoters upon serum stimulation” value [3] was “causes the dissociation of Raf-1; also recorded: disrupted” and the “binding of E2F1, HDAC1 and HP1 to promoters” value [3] was “not affected”. The “dissociation of co-repressor Brg-1 from promoters” value [3] was “retention of Brg1; also recorded: inhibited”, the “inhibition of proliferation, MDA-MB-231” value (MDA-MB-231 cells) was 56% and the “inhibition of S-phase entry, A375” value (A375 melanoma cell line) was 58%. For the same molecule, the “rescue of anti-proliferative activity by E2F1 over expression” value [4] was “sufficient to overcome; also recorded: efficiently overcame the anti-proliferative activity”, the “angiogenic tubule formation in matrigel” value [5] was “inhibit angiogenic tubule formation; also recorded: significantly inhibited the angiogenic tubule formation” and the “adherence-independent growth in soft agar, A549” value (A549 cells) was “significantly inhibited the growth”. For the same molecule, the “adherence-independent growth in soft agar, H1650” value (H1650 cells) was “significantly inhibited the growth”, the “adherence-independent growth in soft agar, SK-MEL-28” value (SK-MEL-28 cells) was “significantly inhibited the growth” and the “tumor growth, A549-sh8 tumors lacking Rb” value (A549-sh8 tumors) was “unable to inhibit tumor growth; also recorded: did not respond”. The “Rb/E2F1 interaction in tumor lysates” value [6] was “without inhibiting Rb-E2F1 interaction; also recorded: not Rb/E2F1 interaction”.
